Values of other authors in patent US6632921B1, “Seryl-lysyl-based peptide and peptidomimetic inhibitors of N-myristoyl transferase as anti-infective agents” (G. D Searle & Co, priority 1995, dated 2003).

Tests used:
[1] = system: a variety of fungal species, including C. albicans; conditions: Sabouraud dextrose agar; series of n-alkoxyacetic acids; cited from earlier work
HIV-1 = conditions: acutely and chronically infected human T-lymphocyte cell lines, doses which do not cause cellular toxicity; cited from earlier work

| SMILES | effects on the growth of fungal species [1] | inhibition of HIV-1 replication (HIV-1) |
| --- | --- | --- |
| CCCCCCCCCCCOCC(=O)O [3-oxatetradecanoic acid] | inhibiting growth | – |
| COCCCCCCCCCCCC(=O)O [13-oxatetradecanoic acid] | – | inhibits HIV-1 replication |
| CCCCCCCCOCC(=O)O [3-oxaundecanoic acid] | broadest spectrum and highest potency | – |
